From patent publication US11840686B2, “Modulation of prekallikrein (PKK) expression” (Ionis Pharmaceuticals, Inc., priority 2013, dated 2023)
Strand notation (5' to 3'): a small letter for the sugar, then the base; units joined by * are phosphorothioate-linked, units joined directly phosphodiester-linked; [ ] holds rarer units or linkages, { } end groups; capitals alone tell only the bases. e = 2'-O-(2-methoxyethyl) (MOE); k = constrained ethyl (cEt); [5mC] = 5-methylcytosine; d = 2'-deoxy (DNA)

Columns and labels:
Format in all cases: cell-based
human PKK mRNA [1] = test: Antisense inhibition of human PKK mRNA in HepaRG cells, 1,000 nM, MOE/deoxy/cEt oligonucleotides (Example 3)
How it was run: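 Readout is percent PKK mRNA reduction against untreated controls, by real-time PCR (RTS3454) adjusted for total RNA via RIBOGREEN. Oligonucleotides, phosphorothioate gapmers of 16 nucleosides with cEt, MOE and deoxy sugars, were delivered at 1,000 nM by electroporation to 20,000 HepaRG cells/well for roughly 24 h.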

human PKK mRNA [2] = test: Dose-dependent antisense inhibition of human PKK in HepaRG cells, 0.11-3.00 uM (Example 6); details: for percent inhibition of PKK mRNA, 0.11 μM / percent inhibition of PKK mRNA, 0.33 μM / percent inhibition of PKK mRNA, 1.00 μM / percent inhibition of PKK mRNA, 3.00 μM: electroporation, approx. 16 hours, relative to untreated control cells
Protocol: Cells were plated at a density of 20,000 cells per well and transfected using electroporation with 0.11 μM, 0.33 μM, 1.00 μM, and 3.00 μM concentrations of antisense oligonucleotide. After a treatment period of approximately 16 hours, RNA was isolated from the cells and PKK mRNA levels were measured by quantitative real-time PCR. Human PKK primer probe set RTS3454 was used to measure mRNA levels. PKK mRNA levels were adjusted according to total RNA content, as measured by RIBOGREEN®. The antisense oligonucleotides were tested in a series of experiments that had similar culture conditions.
The half maximal inhibitory concentration (IC50) of each oligonucleotide is also presented.

human PKK mRNA [3] = test: Antisense inhibition of human PKK mRNA in HepaRG cells, 5,000 nM (Example 2)
How it was run: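 Percent inhibition of PKK mRNA is relative to untreated control, with qRT-PCR (probe set RTS3454) values adjusted to total RNA by RIBOGREEN. Oligonucleotides, fully phosphorothioate 2′-MOE gapmers, were delivered at 5,000 nM by electroporation into 20,000 HepaRG cells/well for about 24 h.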

human PKK mRNA [4] = test: Dose-dependent antisense inhibition of human PKK in HepaRG cells, 0.19-5.00 uM (Example 5)
How it was run: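 PKK mRNA knockdown was measured by real-time PCR (primer probe set RTS3454) about 16 h after electroporating 20,000 HepaRG cells per well with oligonucleotide at four doses from 0.19 to 5.00 μM. Levels were adjusted to RIBOGREEN-measured total RNA, and IC50 values were calculated.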

[5] = HepaRG cells, electroporation with 5,000 nM antisense oligonucleotide, approximately 24 hours, PKK mRNA by RT-PCR (RTS3454), relative to untreated control cells, Table 6 experiment
[6] = Table 34, HepaRG, electroporation, ~16 h
[7] = HepaRG cells, electroporation, approximately 16 hours, Table 35
[8] = 4 point dose response, HepaRG cells, Table 35
[9] = HepaRG cells, electroporation, approximately 16 hours, Table 40
[10] = HepaRG cells, electroporation, approximately 16 hours, Table 37

548422 (antisense eG*eT*kA*dT*d[5mC]*dA*d[5mC]*dT*dG*dT*d[5mC]*d[5mC]*dT*kA*kT*eA) [compound 548422]
% inhibition (human PKK mRNA [1]; Table 30, human PKK mRNA, HepaRG cells, 1,000 nM antisense oligonucleotide): 69%
IC50 (human PKK mRNA [2]; 0.11-3.00 μM): 700 nM
percent inhibition of PKK mRNA, 0.11 μM (human PKK mRNA [2]): 0%
percent inhibition of PKK mRNA, 0.33 μM (human PKK mRNA [2]): 32%
percent inhibition of PKK mRNA, 1.00 μM (human PKK mRNA [2]): 71%
percent inhibition of PKK mRNA, 3.00 μM (human PKK mRNA [2]): 93%

547922 (eT*eG*kG*dA*dG*dT*dG*dA*dG*dA*dA*d[5mC]*d[5mC]*k[5mC]*kT*eG; antisense) [compound 547922]
% inhibition (human PKK mRNA [1]; HepaRG cells, electroporation with 1,000 nM antisense oligonucleotide, approximately 24 hours, primer probe set RTS3454, relative to untreated control cells, experiment of Table 23): 79%
percent inhibition of PKK mRNA, 0.11 μM (human PKK mRNA [2]): 67%
percent inhibition of PKK mRNA, 0.33 μM (human PKK mRNA [2]): 75%
percent inhibition of PKK mRNA, 1.00 μM (human PKK mRNA [2]): 81%
percent inhibition of PKK mRNA, 3.00 μM (human PKK mRNA [2]): 92%

546188 (antisense e[5mC]*eT*e[5mC]*e[5mC]*eT*dT*dT*dA*dT*dA*dA*dA*dT*dG*dT*e[5mC]*eT*e[5mC]*eG*eA) [compound 546188]
% inhibition (human PKK mRNA [3]; [5]): 95%
percent inhibition of PKK at 5.00 μM (human PKK mRNA [4]; HepaRG cells, electroporation, approximately 16 hours, Table 41): 97%
percent inhibition of PKK at 0.19 0μM (human PKK mRNA [4]; 0.19 0μM, HepaRG cells, electroporation, approximately 16 hours, Table 41): 27%
percent inhibition of PKK at 0.56 0μM (human PKK mRNA [4]; 0.56 0μM, HepaRG cells, electroporation, approximately 16 hours, Table 41): 69%
percent inhibition of PKK at 1.67 1μM (human PKK mRNA [4]; 1.67 1μM, HepaRG cells, electroporation, approximately 16 hours, Table 41): 88%
IC50 (human PKK mRNA [4]; 4 point dose response, HepaRG cells, Table 41): 400 nM
percent inhibition of PKK at 0.19 μM (human PKK mRNA [4]; [6]): 36%
percent inhibition of PKK at 0.56 μM (human PKK mRNA [4]; [6]): 55%
percent inhibition of PKK at 1.67 μM (human PKK mRNA [4]; [6]): 81%
percent inhibition of PKK at 5.00 μM (human PKK mRNA [4]; [6]): 83%
IC50 (human PKK mRNA [4]; Table 34, PKK mRNA, HepaRG, electroporation, ~16 h): 400 nM

546190 (antisense e[5mC]*eT*e[5mC]*eT*e[5mC]*dA*dT*dA*dT*d[5mC]*dA*dA*d[5mC]*dT*d[5mC]*e[5mC]*eT*eT*eT*eA) [compound 546190]
% inhibition (human PKK mRNA [3]; [5]): 92%
percent inhibition of PKK at 0.19 μM (human PKK mRNA [4]; [7]): 33%
percent inhibition of PKK at 0.56 μM (human PKK mRNA [4]; [7]): 65%
percent inhibition of PKK at 1.67 μM (human PKK mRNA [4]; [7]): 86%
IC50 (human PKK mRNA [4]; [8]): 400 nM
percent inhibition of PKK mRNA, 0.19 μM (human PKK mRNA [4]; HepaRG cells, 0.19 μM antisense oligonucleotide): 21%
percent inhibition of PKK mRNA, 0.56 μM (human PKK mRNA [4]; HepaRG cells, 0.56 μM antisense oligonucleotide): 34%
percent inhibition of PKK mRNA, 1.67 μM (human PKK mRNA [4]; HepaRG cells, 1.67 μM antisense oligonucleotide): 76%
percent inhibition of PKK mRNA, 5.00 μM (human PKK mRNA [4]; HepaRG cells, 5.00 μM antisense oligonucleotide): 98%
IC50 (human PKK mRNA [4]; HepaRG cells, 0.19-5.00 μM): 700 nM

547728 (eG*eA*eG*eA*eT*dT*dG*dG*dT*dG*dG*dT*dG*dG*dG*eT*eG*eG*e[5mC]*eA; antisense) [compound 547728]
% inhibition (human PKK mRNA [3]; HepaRG cells, 5,000 nM antisense oligonucleotide, 5-10-5 gapmers, Table 17): 88%
percent inhibition of PKK at 0.19 μM (human PKK mRNA [4]; [9]): 0%
percent inhibition of PKK at 0.56 μM (human PKK mRNA [4]; [9]): 2%
percent inhibition of PKK at 1.67 μM (human PKK mRNA [4]; [9]): 16%
percent inhibition of PKK at 5.00 μM (human PKK mRNA [4]; [9]): 61%
IC50 (human PKK mRNA [4]; 4 point dose response, HepaRG cells, Table 40): 4400 nM

547694 (antisense eG*eT*e[5mC]*eA*e[5mC]*dT*dG*dT*dA*d[5mC]*d[5mC]*dT*dA*dT*dA*eA*e[5mC]*eT*eG*eT) [compound 547694]
% inhibition (human PKK mRNA [3]; HepaRG cells, 5,000 nM antisense oligonucleotide, 5-10-5 gapmers, Table 16): 92%
percent inhibition of PKK at 0.19 μM (human PKK mRNA [4]; [7]): 0%
percent inhibition of PKK at 0.56 μM (human PKK mRNA [4]; [7]): 29%
percent inhibition of PKK at 1.67 μM (human PKK mRNA [4]; [7]): 67%
percent inhibition of PKK at 5.00 μM (human PKK mRNA [4]; [7]): 90%
IC50 (human PKK mRNA [4]; [8]): 1200 nM

546855 (eA*eT*eA*eA*e[5mC]*dA*dG*dT*dA*dT*d[5mC]*dA*d[5mC]*dT*dG*eT*e[5mC]*e[5mC]*eT*eA; antisense) [compound 546855]
% inhibition (human PKK mRNA [3]; human PKK mRNA in HepaRG cells, 5-10-5 gapmers, Table 14): 87%
percent inhibition of PKK at 0.19 μM (human PKK mRNA [4]; [10]): 18%
percent inhibition of PKK at 0.56 μM (human PKK mRNA [4]; [10]): 7%
percent inhibition of PKK at 1.67 μM (human PKK mRNA [4]; [10]): 30%
percent inhibition of PKK at 5.00 μM (human PKK mRNA [4]; [10]): 82%
IC50 (human PKK mRNA [4]; 4 point dose response, HepaRG cells, Table 37): 2200 nM
